Reference: patent US20250179589A1, “SYNTHETIC LETHALITY AND THE TREATMENT OF CANCER” (PACYLEX PHARMACEUTICALS INC., priority 2012, published 2025)
pIC50: −log10 of the molar value. Residues, ends and D or L forms follow the SMILES beside them. *: point of attachment. Cbz = O=C(OCc1ccccc1)*

Columns and labels:
[1] = tested on: Mcl-1 levels in IM9, KMH2, Ramos, BL2 cells; assay: Western blot of protein levels after MG-132 treatment; assay type: cell-based, human; conditions: all cell types, 10 μM, 5 h
Protocol: (§1) IM9, KMH2, BL2 and Ramos cells were plated (3×10^6 cells per well in a 6-well dish) and treated with 10 μM MG-132 for 5 hours. Equal amount of DMSO was added to the control samples. Cells were then lysed and subjected to SDS-PAGE/Western blot analyses.
(§2) In this example, in FIG. 26, it is shown that proteosomal degradation is not the cause of NMT2 depletion in BL cells. In these experiments, “Normal” immortalized B lymphocytes (IM9) and malignant B lymphoma cells [Hodgkin's lymphoma (KMH2) and BL (Ramos, BL2)] treated with 10 μM of proteosomal inhibitor (MG-132) for 5 h. Western blotting was performed on cell lysates to monitor levels of NMT1, NMT2, Mcl-1, and GAPDH.
(§3) To investigate whether NMT2's degradation was increased as a result of a destabilizing mutation or the presence of an unknown factor that could destabilize NMT2 in cancer cells, we treated normal and malignant lymphocytes with the proteosomal degradation inhibitor MG-132 for 5 h. Cell lysates were subjected to western blotting to analyze the presence of NMT1, NMT2 and myeloid cell leukemia-1 protein (Mcl-1), which was used as a control to check the effectiveness of MG-132 since it is subject to proteosomal degradation.

[2] = tested on: NMT2 levels in BL cells (Ramos, BL2); assay: as above; assay type: cell-based, human; conditions: 10 μM, 5 h
Protocol: as §1, §2, §3

[3] = tested on: NMT1 levels in IM9, Ramos, BL2 cells; assay: Western blot of protein levels after SAHA treatment; assay type: cell-based, human; conditions: 1 μM, 24 h
Protocol: (§4) IM9, BL2 and Ramos cells were plated at 3×10^6 cells per well in a 6-well dish and treated with 1 μM suberoylanilide hydroxamic acid (SAHA), which is a reversible inhibitor of class I and class II histone deacetylases (HDACs), for 24 hours. Equal amount of DMSO was added to cells as a control. Cells were lysed and subjected to SDS-PAGE/Western blot analyses.
(§5) To test whether the reduction in mRNA NMT2 was due to chromatin silencing, we treated “normal” B cells (IM9) and malignant BL cells with suberoylanilide hydroxamic acid (SAHA) (also named vorinostat), a class I and class II histone deacetylase inhibitor, for 24 hours and monitored the levels of NMT1 and NMT2 by western blot. In particular, “Normal” B cells (IM9) and malignant BL cells (Ramos, BL2) treated with 1 μM SAHA (HDAC class I/II inhibitor) for 24 h. Cells were then lysed, subjected to SDS-PAGE and western blotting was performed with NMT1, NMT2, p21/WAF1 and GAPDH antibodies.

[4] = tested on: NMT2 levels in BL cells (Ramos, BL2); assay: as above; assay type: cell-based, human; conditions: 1 μM, 24 h
Protocol: as §4, §5

[5] = tested on: p21/WAF1 levels in IM9, Ramos, BL2 cells; assay: as above; assay type: cell-based, human; conditions: all cells, 1 μM, 24 h
Protocol: as §4, §5

NMT2 = biological target: T1, NMT2 (Homo sapiens, UniProt O60551); assay: In vitro NMT activity (peptide myristoylation) assay; assay type: biochemical
T1 construct: We generated His-tagged full-length (His-NMT1 and His-NMT2) and caspase truncated (His-73NMT1, His-26NMT2 and His-68NMT2) human NMT vectors; His6 (N); made in house; host or cells: E. coli Lemo21(DE3) pLysS
From the text: (§6) In vitro NMT activity assay. N-myristoyltransferase activity assay protocol was adapted from Raju, R. V., and Sharma, R. K. (1999) Preparation and assay of myristoyl-CoA:protein N-myristoyltransferase. Methods Mol Biol 116, 193-211. [^3H] myristoyl-CoA was freshly synthesized for each experiment, as previously described by Towler, D., and Glaser, L. (1986) Protein fatty acid acylation: enzymatic synthesis of an N-myristoylglycyl peptide. Proc Nat Acad Sci USA 83, 2812-2816. Briefly, cells were resuspended in 0.25 M sucrose buffer (50 mM NaH2PO4, pH 7.4) and subjected to 2 rounds of sonication at level 6.0 on a Branson Sonicator. Reaction mixture is composed of 10 μL of cell extract (about 20 μg of proteins) incubated in NMT activity buffer (0.26M Tris-HCl, 3.25 mM EGTA, 2.92 mM EDTA and 29.25 mM 2-mercaptoethanol, 1% Triton X-100, pH 7.4) and myristoylable or non-myristoylable decapeptide corresponding to the N-terminal sequence of truncated-Bid (0.1 mM dissolved in water). Reaction was started by the addition of 7.4 μL (≈10 pMol) of freshly synthesized [^3H] myristoyl-CoA (final mixture volume=25 μL) and incubated for 15 min at 30° C. The reaction is stopped by spotting 15 μL of the reaction mixture on a P81 phosphocellulose paper disc (Whatman, Kent, UK) and dried for 30 seconds. Discs were washed (washing buffer: 25 mM Tris buffer, pH 7.4) to remove the residual radioactivity ([^3H]-myristate and [^3H]-myristoyl-CoA) while [^3H]-myristoyl-peptide is retained on the phosphocellulose paper. Radioactivity was quantified by liquid scintillation counting and converted into pMol of myristoylated peptide (Raju, R. V., and Sharma, R. K. (1999) Preparation and assay of myristoyl-CoA:protein N-myristoyltransferase. Methods Mol Biol 116, 193-211
(§7) NMT activity was assayed using a peptide myristoylation assay with purified recombinant NMT1 and NMT2. NMT activity was calculated from the amount of radiolabeled myristoylpeptide produced and detected on phosphocellulose paper (adapted from King et al. 1991, Anal Biochem.).
(§8) In this example, in FIG. 10, the sensitivity of various immortalized normal LO B lymphocytes (obtained from Dr. Riabowol, U. of Calgary), malignant B lymphoma cells (Ramos and BL2), and, T cell leukemia (CEM) is shown to the NMT inhibitor TrisDBA for 24 hours (A) Residual viability of various cell lines treated with TrisDBA for 24 hours (n=9) (B) Effect of TrisDBA on N-myristoyltransferase activity in COS7 cells transiently expressing NMT1 or NMT2 incubated for 24 h with TrisDBA. In vitro the IC50 for TrisDBA is approximately 2 μM for NMT1 and 5 μM for NMT2.

NMT1 = biological target: T2, NMT1 (Homo sapiens, UniProt P30419); assay: as above; assay type: biochemical
T2 construct: We generated His-tagged full-length (His-NMT1 and His-NMT2) and caspase truncated (His-73NMT1, His-26NMT2 and His-68NMT2) human NMT vectors; His6 (N); made in house; host or cells: E. coli Lemo21(DE3) pLysS
From the text: as §6, §7, §8

[6] = tested on: Ramos B lymphoma cells transfected with pcDNA3.1-V5-NMT2; assay: Survival of NMT2-transfected Ramos cells, trypan blue exclusion; assay type: cell-based, human; conditions: TrisDBA 5 ug/ml, 24 hours
Protocol: (§9) Cell viability assay. B and T cell viability was measured using the trypan blue exclusion method. Cells were grown in confluency conditions (2×10^6 cells/mL maximum) assuring the minimum basal apoptosis. […] Cell viability was quantified using the TC10™ automated cell counter (Biorad).

[7] = tested on: BL-2 (Burkitt's lymphoma) cells; assay: Trypan blue exclusion cell viability assay; assay type: cell-based, human; conditions: BL-2, 24 hours, compared with L0 and CEM cells
Protocol: as §9
(§10) The drugs were dissolved in DMSO to make 100× stock solutions for each concentration tested, so that the final volume of DMSO in each well was 1%.
(§11) Cell viability was then quantified using the TC10™ automated cell counter (Biorad).

[8] = tested on: Ramos (Burkitt's lymphoma) cells; assay: Trypan blue exclusion cell viability assay; assay type: cell-based, human; conditions: 24 hours, compared with L0 and CEM cells
Protocol: as §9, §10, §11

T2 sequence (P30419 whole entry, the tested form may be a part): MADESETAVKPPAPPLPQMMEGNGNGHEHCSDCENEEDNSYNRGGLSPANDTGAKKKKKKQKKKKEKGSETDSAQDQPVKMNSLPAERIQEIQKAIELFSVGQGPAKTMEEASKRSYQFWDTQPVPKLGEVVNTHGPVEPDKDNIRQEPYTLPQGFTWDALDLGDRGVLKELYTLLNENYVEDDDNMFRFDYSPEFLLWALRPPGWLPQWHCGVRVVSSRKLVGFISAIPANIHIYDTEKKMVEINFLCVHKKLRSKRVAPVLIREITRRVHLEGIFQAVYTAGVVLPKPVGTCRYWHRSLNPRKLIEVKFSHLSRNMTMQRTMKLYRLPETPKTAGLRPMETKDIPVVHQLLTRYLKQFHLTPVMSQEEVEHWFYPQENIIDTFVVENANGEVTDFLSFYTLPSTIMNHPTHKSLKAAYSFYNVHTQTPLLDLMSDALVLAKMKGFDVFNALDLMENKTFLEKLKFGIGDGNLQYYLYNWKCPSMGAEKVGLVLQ
T1 sequence (O60551 whole entry, the tested form may be a part): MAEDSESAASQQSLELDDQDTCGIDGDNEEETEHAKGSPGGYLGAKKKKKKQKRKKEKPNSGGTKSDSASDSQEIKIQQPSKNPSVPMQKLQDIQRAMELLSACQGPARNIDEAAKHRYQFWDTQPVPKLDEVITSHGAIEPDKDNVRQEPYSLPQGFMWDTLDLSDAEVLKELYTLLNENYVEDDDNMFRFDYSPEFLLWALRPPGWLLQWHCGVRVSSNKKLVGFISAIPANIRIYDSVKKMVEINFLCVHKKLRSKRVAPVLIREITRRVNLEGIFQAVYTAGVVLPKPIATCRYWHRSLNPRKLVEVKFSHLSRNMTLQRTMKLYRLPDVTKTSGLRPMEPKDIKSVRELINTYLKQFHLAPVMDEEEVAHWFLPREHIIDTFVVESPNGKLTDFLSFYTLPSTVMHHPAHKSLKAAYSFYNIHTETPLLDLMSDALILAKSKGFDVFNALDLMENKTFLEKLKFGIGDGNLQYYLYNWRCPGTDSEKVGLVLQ

Q: What does the source list for CC(C)C[C@@H](C=O)NC(=O)[C@H](CC(C)C)NC(=O)[C@H](CC(C)C)NC(=O)OCc1ccccc1 [MG-132] (Cbz-Leu-Leu-Leu-aldehyde)?
A: Mcl-1 levels [1]: increased levels of Mcl-1; NMT2 levels [2]: did not increase

Q: Which results are given for O=C(CCCCCCC(=O)Nc1ccccc1)NO [SAHA, suberoylanilide hydroxamic acid]?
A: NMT1 levels [3]: remained relatively unchanged; NMT2 levels [4]: increased NMT2 levels; p21/WAF1 levels [5]: increased p21/WAF1 levels

Q: With “tris-dibenzylideneacetone-dipalladium [TrisDBA]” as the compound, how does the pIC50 (NMT2; NMT2, in vitro) read?
A: ~5.30

Q: And the “inhibition of NMT activity” value (NMT2; purified recombinant NMT2)?
A: inhibits NMT in vitro

Q: What about the pIC50 (NMT1; NMT1, in vitro) of the same compound?
A: ~5.70

Q: What about the “inhibition of NMT activity” value (NMT1; purified recombinant NMT1) of the same compound?
A: inhibits NMT in vitro

Q: What about the “increase of survival by NMT2 transfection vs control cells transfected with empty plasmid vector” value [6] of the same compound?
A: 2.5 fold

Q: And the “sensitivity (residual viability)” value [7]?
A: more sensitive

Q: What about the “sensitivity (residual viability)” value [8] of the same compound?
A: more sensitive
